Measurements: patent US20180126048A1, “NANOPARTICLE-MEDICATED GENETIC DELIVERY OF GROWTH INHIBITING GENES ON BALLOON ANGIOPLASTY TO SUPPRESS INTIMAL HYPERPLASIA” (Board of Education of the Vocational Schools in the County …, priority 2014, published 2018)

System: left carotid artery
Assay: Glycerol infusion into the artery (cannulation) during carotid injury surgery
Type: in vivo, rat
Settings: glycerol infused into the artery, compared to glycerol coated on a balloon
Description: In total, nine surgeries were performed on nine separate rats. The initial two surgeries represented the first control group—standard left carotid artery injury surgeries. The next two surgeries comprised the second control group—rats which received a standard left carotid artery injury surgery, modified slightly to include a glycerol coating without nanoparticles-carried plasmids on the catheter to test whether or not the substance (without the shRNA-encoding plasmid) had any noteworthy effects on the artery and/or the overall health of the animal before the nanoparticle treatment was delivered. The balloon was immersed in glycerol until 100 μL had covered its surface. Another two surgeries served as an experimental group to compare the method of delivery with the glycerol-coated balloon to a more direct method of delivery: infusion. After the arteriotomy was performed, the artery was cannulated (filled) with a syringe of 100 μL of 50% glycerol and flushed. The procedure then proceeded as previously described. The last three surgeries served as the experimental group utilizing the nanoparticles suspended in the glycerol that coated the balloon.
Intimal hyperplasia was further quantified using a software program, Image J, developed by the National Institutes of Health, which calculates the intimal area through image analysis. […]

In the case of `OCC(O)CO` [glycerol], the “blood clot formation after infusion” value is reported as “blood clot formation”.
